From PubChem BioAssay AID1918994 (Molecular Pharmacology Branch, DTP, NCI, 2023)
Each block holds one compound with its values, some of them ahead of it.

Test system: 292921-168-R-J2-PDC complex spheroid growth
Assay: Anticancer human tumor 292921-168-R-J2-PDC patient-derived pancreatic carcinoma cell line growth inhibition [AhR]
Details: for IC50: curve of first compound; for viability, T/C: stronger effect = lower value
Summary of the method: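 Complex tumor spheroids co-cultured with HUVEC and human MSC stroma; AhR antagonists tested in combination with standard-of-care and investigational agents. Top concentration at or near clinical Cmax (else 10 microM), half-log dilutions; growth expressed as percent test/control.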
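Note: spheroids exposed to compounds for seven days after three days of growth.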

IC50 (second compound 0.1 µM): 6.35 µM
IC50 (second compound 0.316 µM): 6.29 µM
IC50 (second compound 1 µM): 6.07 µM
IC50 (second compound 3.16 µM): 5.51 µM
IC50 (second compound 10 µM): 4.73 µM
Structure (SMILES): CC1(C)CCC(CN2CCN(c3ccc(C(=O)NS(=O)(=O)c4ccc(NCC5CCOCC5)c([N+](=O)[O-])c4)c(Oc4cnc5[nH]ccc5c4)c3)CC2)=C(c2ccc(Cl)cc2)C1 + Cc1ccccc1N=Nc1ccc(NC(=O)c2ccnn2C)c(C)c1
viability, T/C (second compound 0.1 µM, first compound 0.0316 µM): 91.2%
viability, T/C (second compound 0.1 µM, first compound 0.1 µM): 90.5%
viability, T/C (second compound 0.1 µM, first compound 0.316 µM): 109%
viability, T/C (second compound 0.1 µM, first compound 1 µM): 103%
viability, T/C (second compound 0.1 µM, first compound 3.16 µM): 112%
viability, T/C (second compound 0.1 µM, first compound 10 µM): 16.8%
viability, T/C (second compound 0.316 µM, first compound 0.0316 µM): 88.3%
viability, T/C (second compound 0.316 µM, first compound 0.1 µM): 89.3%
viability, T/C (second compound 0.316 µM, first compound 0.316 µM): 97.4%
viability, T/C (second compound 0.316 µM, first compound 1 µM): 96%
viability, T/C (second compound 0.316 µM, first compound 3.16 µM): 108%
viability, T/C (second compound 0.316 µM, first compound 10 µM): 19%
viability, T/C (second compound 1 µM, first compound 0.0316 µM): 96.8%
viability, T/C (second compound 1 µM, first compound 0.1 µM): 101%
viability, T/C (second compound 1 µM, first compound 0.316 µM): 77.8%
viability, T/C (second compound 1 µM, first compound 1 µM): 95.1%
viability, T/C (second compound 1 µM, first compound 3.16 µM): 100%
viability, T/C (second compound 1 µM, first compound 10 µM): 16.2%
viability, T/C (second compound 3.16 µM, first compound 0.0316 µM): 79.8%
viability, T/C (second compound 3.16 µM, first compound 0.1 µM): 77.3%
viability, T/C (second compound 3.16 µM, first compound 0.316 µM): 75.3%
viability, T/C (second compound 3.16 µM, first compound 1 µM): 84%
viability, T/C (second compound 3.16 µM, first compound 3.16 µM): 96.4%
viability, T/C (second compound 3.16 µM, first compound 10 µM): 15.1%
viability, T/C (second compound 10 µM, first compound 0.0316 µM): 65.4%
viability, T/C (second compound 10 µM, first compound 0.1 µM): 63.5%
viability, T/C (second compound 10 µM, first compound 0.316 µM): 53.9%
viability, T/C (second compound 10 µM, first compound 1 µM): 72.5%
viability, T/C (second compound 10 µM, first compound 3.16 µM): 77.6%
viability, T/C (second compound 10 µM, first compound 10 µM): 19.3%

IC50 (second compound 0.1 µM): > 3 µM
IC50 (second compound 0.316 µM): > 3 µM
IC50 (second compound 1 µM): > 3 µM
IC50 (second compound 3.16 µM): > 3 µM
IC50 (second compound 10 µM): 1.43 µM
Structure (SMILES): CCN(c1cc(-c2ccc(CN3CCOCC3)cc2)cc(C(=O)NCc2c(C)cc(C)[nH]c2=O)c1C)C1CCOCC1 + Cc1ccccc1N=Nc1ccc(NC(=O)c2ccnn2C)c(C)c1
viability, T/C (second compound 0.1 µM, first compound 0.00949 µM): 98.1%
viability, T/C (second compound 0.1 µM, first compound 0.03 µM): 90.7%
viability, T/C (second compound 0.1 µM, first compound 0.0949 µM): 96.7%
viability, T/C (second compound 0.1 µM, first compound 0.3 µM): 89.5%
viability, T/C (second compound 0.1 µM, first compound 0.949 µM): 86%
viability, T/C (second compound 0.1 µM, first compound 3 µM): 80.5%
viability, T/C (second compound 0.316 µM, first compound 0.00949 µM): 93.4%
viability, T/C (second compound 0.316 µM, first compound 0.03 µM): 85.2%
viability, T/C (second compound 0.316 µM, first compound 0.0949 µM): 81.7%
viability, T/C (second compound 0.316 µM, first compound 0.3 µM): 80.7%
viability, T/C (second compound 0.316 µM, first compound 0.949 µM): 71.9%
viability, T/C (second compound 0.316 µM, first compound 3 µM): 76.8%
viability, T/C (second compound 1 µM, first compound 0.00949 µM): 82.1%
viability, T/C (second compound 1 µM, first compound 0.03 µM): 87.8%
viability, T/C (second compound 1 µM, first compound 0.0949 µM): 88.8%
viability, T/C (second compound 1 µM, first compound 0.3 µM): 79.1%
viability, T/C (second compound 1 µM, first compound 0.949 µM): 85.7%
viability, T/C (second compound 1 µM, first compound 3 µM): 69.5%
viability, T/C (second compound 3.16 µM, first compound 0.00949 µM): 72.2%
viability, T/C (second compound 3.16 µM, first compound 0.03 µM): 74.9%
viability, T/C (second compound 3.16 µM, first compound 0.0949 µM): 72.5%
viability, T/C (second compound 3.16 µM, first compound 0.3 µM): 68.2%
viability, T/C (second compound 3.16 µM, first compound 0.949 µM): 67.3%
viability, T/C (second compound 3.16 µM, first compound 3 µM): 58.8%
viability, T/C (second compound 10 µM, first compound 0.00949 µM): 57%
viability, T/C (second compound 10 µM, first compound 0.03 µM): 58.2%
viability, T/C (second compound 10 µM, first compound 0.0949 µM): 51%
viability, T/C (second compound 10 µM, first compound 0.3 µM): 57.4%
viability, T/C (second compound 10 µM, first compound 0.949 µM): 53%
viability, T/C (second compound 10 µM, first compound 3 µM): 44.8%
